This is an account of results in article PMC10826043 (BMC Complementary Medicine and Therapies, 2024).

For data set [1] the following is noted: study encompassing 714 medicated patients; ref [10]; cited from earlier work.
For data set [2], the target named is α-amylase. The following applies: validation set, supplement ref [3]; cited from earlier work.
Data set [3] has as its target T1, α-amylase from porcine pancreas (Sus scrofa, UniProt P00690).
T1 construct: α-amylase from porcine pancreas (A3176); purchased Sigma-Aldrich (Germany) A3176; host or cells: porcine pancreas (tissue-derived)
T1 sequence (P00690 16-511): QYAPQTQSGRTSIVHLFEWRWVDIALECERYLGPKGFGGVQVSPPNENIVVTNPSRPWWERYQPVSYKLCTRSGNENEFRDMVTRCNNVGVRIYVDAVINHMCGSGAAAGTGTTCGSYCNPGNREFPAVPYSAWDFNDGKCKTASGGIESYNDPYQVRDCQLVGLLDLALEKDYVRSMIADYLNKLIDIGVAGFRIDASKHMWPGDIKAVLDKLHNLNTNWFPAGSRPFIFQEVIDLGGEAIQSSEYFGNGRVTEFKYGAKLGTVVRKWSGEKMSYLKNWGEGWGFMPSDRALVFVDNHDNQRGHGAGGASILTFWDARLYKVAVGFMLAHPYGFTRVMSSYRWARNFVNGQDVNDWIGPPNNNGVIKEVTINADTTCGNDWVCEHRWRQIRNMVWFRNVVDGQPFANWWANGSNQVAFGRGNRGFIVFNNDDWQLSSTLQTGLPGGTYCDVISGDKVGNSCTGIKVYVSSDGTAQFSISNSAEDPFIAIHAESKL
Briefly: In vitro pancreatic α-amylase inhibitory assay (starch/DNS, 540 nm). It counts as biochemical. As to conditions: 1% starch, pH 6.9, 25 °C, read-out: IC50 (α-amylase inhibition). As to the method: Analytical purity grade solvents were used throughout the study.
With reference to the established technique, the assay was carried out quantitatively with minor adjustments. Initially, 500µL test solution was preincubated with 500µL α-amylase solution (0.55 unit/mL) at 25°C for 10 min. The α-amylase was prepared in a buffer solution (0.02M sodium phosphate pH 6.9 with 0.006M NaCl). Afterwards, 500µL of 1% w/v starch in buffer solution was mixed in and left to incubate for 10 min at 25°C. To bring the reaction to a halt, 1mL dinitrosalicylic acid (DNS) was introduced and the mixture was placed in a boiling water bath for 3.5 min. After cooling to room temperature, the mixture was then diluted using 10mL distilled water and absorbance was measured using a Laxco spectrophotometer (α1502, Laxco Inc., USA) at λ 540nm. Blanks used throughout the experiment were made by adding pure buffer instead of α-amylase solution. […] To calculate the pancreatic α-amylase inhibitory activity, the following equation was used: %Inhibtion=100×1-Abs540nmExtract-Abs540nmPositivecontrol/Abs540nmNegativecontrol-Abs540nmPositivecontrol

Data set [4] addresses T2, α-amylase (Sus scrofa, UniProt P00690).
T2 construct: α-amylase from porcine pancreas (A3176); purchased Sigma-Aldrich (Germany) A3176; host or cells: porcine pancreas (tissue-derived)
T2 sequence (P00690 16-511): T1 sequence (P00690 16-511)
Briefly: Combination analysis of α-amylase inhibition (CompuSyn: median-effect, isobologram, CI, DRI). It counts as biochemical, porcine. As to conditions: for Dose (mM) Kaempferol: kaempferol alone. An excerpt: These include: median effect, isobolographic, combination index, and lastly, dose reduction index analyses.
Data input included each inhibitors’ independent activity and the summation of both inhibitors’ activity when used in conjunction of each other. […] 2.6.
This method of analysis relies on its namesake equation, the median-effect equation which stems from the general mass-action law principle. Each inhibitor’s sigmoidal dose–effect plot was individually generated in addition to their respective combination. Thereafter, the plot was transfigured linearly into median-effect plots. The median-effect equation is described as: fa/fu=D/Dm^m
D represents the dose of the inhibitor, Dm is the inhibitor’s dose causing a decrease of 50% in the enzyme’s activity, fa is the fraction affected by dose D , fu is the unaffected fraction ( fu = 1 – fa ), and m the curve’s sigmoidicity coefficient. Through logarithmic transformation, the equation becomes: Logfa/fu=mlogD-mlog(Dm)
This, in turn, results in the median-effect plot. A plot where y=log(fa/fu) against x=log(D) with m being the slope and log(Dm) , the x-intercept. Dm and m are obtained from the median-effect plot. To determine the data’s conformity to the general mass-action principle, the linear correlation coefficient (r) of the plot is assessed.
Using each inhibitor’s individual effect, this method of analysis is employed to assess the combined effect of two inhibitors. A graph, wherein the x- and y- axes represent the doses of inhibitors A and B, respectively, is plotted. The doses, a and b denote the dose of inhibitor A and B, respectively, resulting in the same efficacy when used individually. (e.g.: At x % inhibition, a = CA,x and b = CB,x ). To assess the combined effects of inhibitors A and B, an additive line must first be established. This is accomplished by connecting two points of the same efficacy (e.g.: connecting a with b). Based on the respective position of the combination data points relative to the additive line, the nature of the interaction can be determined; synergism, addition, or antagonism are indicated by data points lying below, on, or above the additive line, respectively.
The combination index (CI) quantitatively evaluates the type of interaction between two inhibitors at a series of inhibition levels. CI is calculated by means of the following equation [38]: CI=CA,x/ICx,A+CB,x/ICx,B Where ICx,A and ICx,B are the doses of inhibitors A and B, respectively, required to produce x % inhibition when each inhibitor is used individually. Whereas CA,x and CB,x are the doses of inhibitors A and B, respectively, required to produce x % inhibition when a binary mixture is used. Based on the resulting CI, the nature of the inhibitors’ interaction can be concluded. A CI lower than, equal to, or greater than 1 is indicative of synergism, addition, or antagonism, respectively. Alternatively, the interaction present between the two inhibitors can be deduced via the combination index ( fa -CI) plot.
The dose reduction index (DRI) was calculated for synergistic binary combinations to measure the fold decrease in the dose of each inhibitor at a given effect level, relative to the dose of each inhibitor when used solitarily resulting in the same effect. DRI can be calculated as follows: DRI=IC50[solitaryinhibitor]/IC50[inhibitorincombination]
DRI values > 1 are favored, reflecting a decrease in dose while maintaining or enhancing the inhibitor’s efficacy.

Each structure is given as a SMILES string.

As to `C[C@H]1O[C@H](O[C@H]2[C@H](O)[C@@H](O)[C@@H](O[C@H]3[C@H](O)[C@@H](O)C(O)O[C@@H]3CO)O[C@@H]2CO)[C@H](O)[C@@H](O)[C@@H]1N[C@H]1C=C(CO)[C@@H](O)[C@H](O)[C@H]1O` (stereo partly drawn) [Acarbose], the “participants who discontinued acarbose due to gastrointestinal side effects” value in data set [1] is reported as 19%.

Usually IC50 stands for the point on the concentration scale where inhibition reaches its midpoint. Turning to `O=c1c(O)c(-c2ccc(O)cc2)oc2cc(O)cc(O)c12` [Kaempferol], the IC50 at α-amylase [2] is 0.0165 ± 0.00184 mM; in data set [3], 4.84 ± 0.14 mM; on α-amylase [4], 4.84 mM. For the same molecule, at α-amylase [4], the “m (slope of median-effect plot)” value was found to be 1.18. Also, the “r (correlation coefficient of median-effect plot)” value on α-amylase [4] was found to be 1.00. The results for the “DRI Kaempferol” value at α-amylase [4] (fold dose reduction in combination with acarbose at 26% inhibition), on α-amylase [4] (fold dose reduction in combination with acarbose at 86% inhibition) and on α-amylase [4] (fold dose reduction in combination with acarbose at 91% inhibition) were 2.66, 2.27 and 1.11, respectively. Moreover, the results for the “Dose (mM) Kaempferol” value at α-amylase [4] (dose needed for 26% inhibition), at α-amylase [4] (dose needed for 86% inhibition) and at α-amylase [4] (dose needed for 91% inhibition) were 1.99 mM, 22.6 mM and 34.5 mM, respectively.
